Reference: patent publication US8252740B2, “Thermally-targeted delivery of medicaments including doxorubicin” (The University of Mississippi Medical Center, priority 2006, dated 2012)
“Also recorded” adds a separate entry of the source. Read-outs that look alike come from different tables or passages of the source. Marks after values point to notes of the source that are not given here.

Assays:
Assay type in all cases: cell-based, human
[1] = test system: MES-SA/Dx5 cells; test: Drug efflux by flow cytometry; details: loaded 5 h with 10 μM
Method: For further evidence that Tat-ELP-GFLG-DOX (SEQ ID NO: 3) can bypass the drug efflux pump, flow cytometry was used to analyze drug efflux from cells treated with free DOX or with Tat-ELP-GFLG-DOX (SEQ ID NO: 3). Cells were loaded for 5 h with either 10 μM DOX or Tat-ELP-GFLG-DOX (SEQ ID NO: 3), then the drug was removed and fresh media was replaced. Cells were collected and analyzed for DOX content using flow cytometry. […] The cells with low DOX fluorescence have pumped the drug out. As time passes after removal of the drug, the DOX positive peak gets lower in intensity and becomes a smaller percentage of the population. This illustrates the removal of DOX from theses cells with time after washing the drug out of the media. […] This means that all cells have the same amount of drug in them. This single peak is still evident at all time points after removal of the drug. This means that these cells are unable to pump the ELP delivered DOX out.

[2] = test system: MES-SA cells; test: Caspase activation, FLICA polycaspase assay with flow cytometry; details: 10 μM, 1 h
Method: MES-SA cells were treated for 1 h at 37 or 42° C. with Tat-ELP-GFLG-DOX (SEQ ID NO: 3), the control construct lacking the Tat sequence, with free DOX. Cells were harvested after the 1 h exposure, and caspase activity was detected using a fluorescent caspase inhibitor (Immunochemistry Technologies, Bloomington, Minn.) and flow cytometry.
Caspase activation was measured using a carboxyfluorescein FLICA polycaspase assay (Immunochemistry Technologies, Bloomington, Minn.). Cells were treated as described above with the indicated protein, collected by trypsinization, and stained for 2 h at 37° C. with the carboxyfluorescein FLICA reagent as described by the manufacturer. Cells were rinsed twice and analyzed for caspase activation by flow cytometry using a Cytomics FC 500 flow cytometer (n=5,000 cells). Forward versus side scatter gating was used to eliminate cell debris from the analysis, and a histogram of fluorescein fluorescence (channel FL1) was bimodal with peaks for caspase positive and caspase negative cells. The percentage of caspase positive cells was determined from the histograms and expressed as an average of 3 experiments.
MES-SA cells were treated as described above, cells were harvested after the 1 h exposure, and caspase activity was detected using a fluorescent caspase inhibitor and flow cytometric analysis. […] Cell numbers under each peak were quantified and averaged to determine the percentage of the cell population in which caspases were activated under each treatment condition. […] In fact, the percent of caspase positive cells was enhanced almost 4 fold when cells were treated with Tat-ELP1-GFLG-Dox (SEQ ID NO: 3) at 42° C. versus 37° C. (p<0.05).

[3] = test system: MES-SA uterine sarcoma cells; details: for IC50: cells counted after 72 h, ± SEM
Method: MES-SA cells were treated for 1 h at 37 or 42° C. with 5 μM Tat-ELP-GFLG-DOX (SEQ ID NO: 3); ELP-GFLG-DOX (SEQ ID NO: 3), which lacks the Tat cell penetrating peptide; or Tat-ELP-GFLG (SEQ ID NO: 3), which is not labeled with DOX. After the 1 h treatment, cells were rinsed and fresh media was replaced for 72 h. Cells remaining after 72 h were collected by trypsinization and counted using a Coulter counter. […] Similarly, the control polypeptide which lacks the Tat sequence was not cytotoxic, likely because it cannot efficiently enter the cells.
1.8 Cytotoxicity Assay. Cells were plated and treated for 1 h at 37° C. and 42° C. as described above with Tat-ELP1-GFLG-Dox (SEQ ID NO: 3), Tat-ELP2-GFLG-Dox (SEQ ID NO: 3), or control polypeptides lacking the Tat sequence or unlabeled with Dox. Cells were rinsed and harvested 72 h after treatment by trypsinization, collected by centrifugation, and resuspended in isotonic buffer. Cell number was determined using a Coulter counter and expressed as a percentage of untreated cells.
1.10. Data Fitting and Statistical Analysis. The concentration dependence of the Tt was fit with a logarithmic equation using Microsoft Excel. Dose-response curves were fit using exponential or sigmoid equations as applicable using Microcal Origin in order to determine the 50% inhibitory concentration (IC50). […] The significance of the thermal targeting index was assessed by comparing the normothermia group with the hyperthermia group using a paired Student's t-test in Microsoft Excel. p values of less than 0.05 were considered statistically significant. Polypeptide uptake and caspase activation were analyzed for statistical differences using one-way ANOVA analyses with post-hoc Scheffe's tests for pair-wise comparisons of treatment groups. The statistical significance level was p<0.05.
3.5. Cytotoxicity of ELP-delivered Dox. The growth-inhibitory activity of Tat-ELP-GFLG-Dox (SEQ ID NO: 3) was evaluated in the MES-SA uterine sarcoma cell line. MES-SA cells were treated for 1 h at 37° C. or 42° C. with various concentrations of Tat-ELP-GFLG-Dox (SEQ ID NO: 3); ELP-GFLG-Dox (SEQ ID NO: 3), which lacks the Tat cell penetrating peptide, the Tat-ELP-GFLG (SEQ ID NO: 3) polypeptide without Dox; or free Dox. After the 1 h treatment, the cells were rinsed and fresh media was replaced for 72 h. Cells remaining after 72 h were rinsed, collected by trypsinization, and counted using a Coulter counter. […] The toxicity of the unlabeled Tat-ELP-GFLG (SEQ ID NO: 3) protein was negligible when treated below the Tt.

[4] = test system: MES-SA cells; test: Confocal fluorescence microscopy of intracellular localization; details: 10 μM, after 1 h exposure; listed as free drug
Method: 1.7. Laser Scanning Confocal Fluorescence Microscopy. MES-SA cells were plated on 22 mm^2 cover slips at approximately 50% confluence and treated as described above with Tat-ELP-GFLG-Dox (SEQ ID NO: 3). Cells were rinsed with PBS at the indicated times, fixed with paraformaldehyde (PFA, 2% v/v) and visualized using a TCS SP2 laser scanning confocal microscope with a 100× oil immersion objective (Leica, Wetzlar, Germany). PMT voltages were lowered for imaging of cells treated at 42° C. during image acquisition to maximize image resolution and intensity.
3.4. Cellular Distribution. To confirm that Tat-ELP-GFLG-Dox (SEQ ID NO: 3) was internalized and not merely attached to the cell exterior, the cellular distribution of the ELP-delivered drug was examined by confocal fluorescence microscopy. MES-SA cells were treated for 1 h at 37° C. and 42° C. with 10 μM Tat-ELP1-GFLG-Dox (SEQ ID NO: 3). The cells were rinsed and analyzed immediately after treatment and 24 h later using the intrinsic Dox fluorescence. […] Untreated cells had no signal under the imaging settings used, ruling out any contribution to the images from autofluorescence (FIG. 7B, right panel).

[5] = test system: MES-SA/Dx5 cells; test: Proliferation of doxorubicin-resistant cells, continuous 72 h exposure
Method: To test the ability of the ELP doxorubicin carrier to overcome this drug resistance, a uterine cancer cell line (MES-SA) and its doxorubicin resistant subline MES-SA/Dx5 were treated with either free doxorubicin or ELP-delivered doxorubicin.
A major problem with classical chemotherapy is the development of drug resistance. The most common mechanism of resistance is expression of a drug efflux pump (MDR1) by the cancer cells in response to drug treatment. This pump can remove drugs from the cells, and, though induced by one drug, it can act on a wide variety of others, resulting in a phenomenon called multi-drug resistance. […] The present inventors used this cell line to determine whether ELP delivered DOX can overcome MDR1-mediated resistance to doxorubicin. MES-SA/Dx5 cells were incubated with Tat-ELP-GFLG-DOX (SEQ ID NO: 3) continuously for 72 h.

[6] = test system: MES-SA cells; test: DIC microscopy of apoptotic cell morphology; details: 10 μM, 1 h, temperature not distinguished
Method: 1.9. Apoptosis Assays. For differential interference contrast (DIC) microscopy, MES-SA cells were plated onto 22 mm^2 coverslips at 50% confluence. Cells were treated as described above with the indicated protein, rinsed with PBS, and mounted onto glass slides. The unfixed cells were imaged immediately using a Zeiss Axiovert 200 DIC microscope with a 40× oil immersion objective and a Coolsnap HQ camera.
2.6. Induction of Apoptosis. […] This effect was documented by treating MES-SA cells adhered to glass cover slips with each construct and imaging them by DIC microscopy. Cells were treated for 1 h as described above, then immediately mounted on slides and imaged without fixation. […] Untreated cells were spread onto the glass, and morphological features such as nuclei and endocytic vesicles were readily visible. This morphology was not altered by simply exposing the cells to hyperthermia. […] However, such effects were minor and limited to a fraction of the cells. […] All cells examined were rounded with no discernable nucleus and fragmented chromosomes.

COc1cccc2c1C(=O)c1c(O)c3c(c(O)c1C2=O)C[C@@](O)(C(=O)CO)C[C@@H]3O[C@H]1C[C@H](N)[C@H](O)[C@H](C)O1 [Dox, doxorubicin]
Drug efflux: Dox fluorescence histogram after removal of the drug [1]: two populations
Enhancement of percent caspase positive cells at 42° C. versus 37° C. [2]: not affected by hyperthermia
Caspase activation / apoptosis induction ([2]; temperature not distinguished): induced apoptosis
Cytotoxicity in words [3]: more cytotoxic than the polymer-delivered drug
IC50 relative to Tat-ELP-GFLG delivered Dox (times lower) [3]: about 150 times
IC50 ([3]; 1 h treatment at 37° C., read-out: IC50 (37° C.)): 130 ± 10 nM
IC50 ([3]; 1 h treatment at 42° C., read-out: IC50 (42° C.)): 58 ± 20 nM
Thermal Targeting Index (IC50 37°/IC50 42°) ([3]; IC50 at 37° C. divided by IC50 at 42° C.): 2.3 †
Intracellular localization of Dox [4]: exclusively in the cell nucleus; also recorded: localizes entirely in the nucleus
Resistance of MES-SA/Dx5 relative to MES-SA cells [5]: 100 times
Resistance of MES-SA/Dx5 relative to MES-SA cells ([5]; continuous 72 h exposure): about 100 fold
Cell morphology (hallmarks of apoptosis) [6]: noticeable rounding and membrane blebbing
